According to patent US4992570A, “UCN-1028A and UCN-1028C and process for the production thereof” (Kyowa Hakko Kogyo Co., Ltd., priority 1987, dated 1991):
Values after ≈ are worked out from the molar mass of the structure shown. Where two headings read alike, the source gives them in different places.

Experiments:
[1] = tested on: HelaS3 cells; assay: Anti-tumor activity: growth inhibition of HelaS3 cells (Neutral Red); type: cell-based; settings: Homo sapiens
Description: (§1) MCF 7 cells (4.5×10^4 cells/ml) prepared in a medium comprising RPMI 1640 medium (manufactured by Gibco Co., Ltd.), 10% fetal calf serum, 10 μg/ml insulin and 10^-8 M estradiol (hereinafter referred to as medium A) were put into wells of a 96 well microtiter plate in the amount of 0.1 m(per each well. After culturing at 37° C for 20 hours in a carbon dioxide gas incubator, each test solution appropriately diluted with medium A (0.05 ml) was added thereto. Then, culturing was carried out at 37° C. for an hour in the carbon dioxide gas incubator, and the culture supernatant was removed. After the residue was washed once with […] (composition: 8 g/l NaCl, 0.2 g/l KCl, 1.5 g/l Na2 HPO4 and 0.2 g/l KH2 PO4), 0.1 ml of fresh medium A was added thereto, followed by culturing at 37° C. for 72 hours in the carbon dioxide gas incubator. Then, the culture supernatant was removed and 0.1 ml of a medium comprising medium A and 0.02% Neutral Red was added to the residue, followed by culturing at 37° C. for one hour in the carbon dioxide gas incubator, thereby staining the cells. After removal of the culture supernatant, the residue was washed once with physiological saline. Then, the pigment was extracted with 0.001 N hydrochloric acid/30% ethanol and absorbency at 550 nm was measured with a microplate reader. By comparing the absorbency of intact cells with that of the cells treated with a test solution having a known concentration, a concentration of the test solution which inhibited 50% of growth of the cells (IC50) was calculated.
HelaS3 cells (3×10^4 cells/ml) prepared in a medium comprising MEM medium (manufactured by Nissui Pharmaceutical Co., Ltd.) and 2 mM glutamine were put into wells of a 96 well microtiter plate in the amount of 0.1 ml per each well. In a manner similar to the case of MCF 7 cells described above, IC^50 was calculated.

[2] = biological target: Protein Kinase C; assay: Protein kinase C inhibitory activity (method of Kikkawa et al.); type: biochemical, rat; settings: for IC50 Protein Kinase C: crude enzyme partially purified from rat brain, [γ-32P]ATP, Histone Type IIS, 30° C., 3 minutes; for selective inhibitory activity on protein kinase C, as compared with Phleichrome: statement on Table 1 (protein kinase C vs protein kinase A)
Description: Protein kinase C inhibitory activity was measured by the method of Kikkawa, et al. [Journal of Biological Chemistry, 257, 13341 (1982)].
That is, 10 μl of a test solution containing UCN-1028A, UCN-1028C or Phleichrome was added to 250 μl of a solution containing 2.5 μmoles of magnesium acetate, 50 μg of Histone Type IIS (manufactured by Sigma Co., Ltd.), 20 μg of phosphatidyl serine, 0.8 μg of diolein, 25 nmoles of CaCl2, 5 μg of crude enzyme (partially purified from rat brain according to the method of Kikkawa, et al.) and 5 μmoles of Tris-hydrochloride buffer (H 7.5), followed by incubation at 30° C. for 3 minutes. Then, phosphorylation was initiated by addition of 1.25 nmoles of [γ-^32 P]ATP (5 to 10×10^3 cpm/nmole), followed by incubation at 30° C. for 3 minutes. The reaction was stopped by adding 25% trichloroacetic acid (TCA), and the reaction solution was filtered through a cellulose acetate membrane (pore size of 0.45 μm) (manufactured by Toyo Filter Paper Co., Ltd.). After the membrane was washed four times with 5% TCA, radioactivity remaining on the membrane was measured. As a control, the same procedure as above was repeated without addition of the test solution and radioactivity was likewise measured. A concentration of the test solution showing 50% inhibition as compared with the control was expressed as IC50.

[3] = tested on: MCF 7 cells; assay: Anti-tumor activity: growth inhibition of MCF 7 cells (Neutral Red); type: cell-based; settings: Homo sapiens
Description: as §1

[4] = biological target: T1, Protein Kinase A (Bos taurus, UniProt P00517); assay: Protein kinase A inhibitory activity (method of Kuo et al.); type: biochemical, calf
T1 construct: partially purified from calf heart; from tissue; host or cells: calf heart (crude enzyme, partially purified by the method of Kuo et al.)
Description: Protein kinase A inhibitory activity was measured according to the method of Kuo, et al. [Biochemistry, 64, […].
That is, 10 μl of a test solution was added to 250 μl of a solution containing 5 μmoles of Tris-hydrochloride buffer (pH 6.8), 2.5 μmoles of magnesium acetate, 100 μg of Histone Type IIS (manufactured by Sigma Co., Ltd.), 0.25 nmoles of C-AMP and 200 μg of crude enzyme (partially purified from calf heart according to the method of Kuo, et al.). Subsequent procedures were conducted in a manner similar to the case of measuring protein kinase C inhibitory activity described above to determine IC^50.

[5] = Solubility
[6] = HeLa S3, similar to MCF 7 cells, MEM medium, 2 mM glutamine, read-out: IC50 HelaS3 cells
[7] = MCF7, 1 hour exposure, then 72 hours culture at 37° C., Neutral Red, 550 nm, read-out: IC50 MCF 7 cells

SMILES	IC50 [1, 6]	IC50 Protein Kinase C [2]	IC50 [3, 7]	IC50 [4]	selective inhibitory activity on protein kinase C, as compared with Phleichrome [2]	Solubility in acetone [5]	Solubility in alkaline water [5]	Solubility in chloroform [5]	Solubility in ethyl acetate [5]	Solubility in methanol [5]	Solubility in n-hexane ([5]; n-hexane)	Solubility in water [5]	IC50 ([1]; HeLa S3, read-out: IC50 HelaS3 cells)	IC50 ([3]; MCF7, read-out: IC50 MCF 7 cells)	IC50 ([4]; crude enzyme partially purified from calf heart, Histone Type IIS, C-AMP, pH 6.8, read-out: IC50 Protein Kinase A)	Solubility in DMSO ([5]; DMSO)
COc1c(CC(C)O)c2c3c(CC(C)O)c(OC)c(=O)c4c(O)cc(OC)c(c5c(OC)cc(O)c(c1=O)c52)c43 (stereo not shown) [Phleichrome, reference compound]	0.61 µg/mL (≈ 1.11 µM)	5.5 µg/mL (≈ 9.99 µM)	0.7 µg/mL (≈ 1.27 µM)	59.9 µM												
COc1c(CC(C)OC(=O)c2ccccc2)c2c3c(CC(C)OC(=O)c4ccccc4)c(OC)c(=O)c4c(O)cc(OC)c(c5c(OC)cc(O)c(c1=O)c52)c43 (stereo not shown) [UCN-1028A]	0.29 µg/mL (≈ 0.382 µM)	0.19 µg/mL (≈ 0.25 µM)	0.21 µg/mL (≈ 0.277 µM)	> 52.7 µM	selective inhibitory activity on protein kinase C	soluble	soluble	readily soluble	readily soluble	soluble	soluble	insoluble				
COc1c(CC(C)OC(=O)Oc2ccc(O)cc2)c2c3c(CC(C)OC(=O)c4ccccc4)c(OC)c(=O)c4c(O)cc(OC)c(c5c(OC)cc(O)c(c1=O)c52)c43 (stereo not shown) [UCN-1028C]		0.07 µg/mL (≈ 0.0885 µM)			selective inhibitory activity on protein kinase C	soluble	soluble	soluble	soluble	readily soluble		insoluble	0.19 µg/mL (≈ 0.24 µM)	0.18 µg/mL (≈ 0.228 µM)	> 50.6 µM	readily soluble
